Experimental data: article PMC11421147 (Journal of Enzyme Inhibition and Medicinal Chemistry, 2024)

Key:
human sPLA2 hG-IIA = biological target: T1, human sPLA2 hG-IIA (Homo sapiens, UniProt P14555); experiment: Inhibition of sPLA2 activity; type: biochemical; settings: IC50 ± standard deviation; for IC50: IC50 sPLA2(IIA)
T1 sequence (P14555 21-144): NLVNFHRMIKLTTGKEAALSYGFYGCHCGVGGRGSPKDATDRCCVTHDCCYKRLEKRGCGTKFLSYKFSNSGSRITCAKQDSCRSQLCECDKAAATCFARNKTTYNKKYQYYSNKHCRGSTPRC

α-glucosidase = α-glucosidase (Saccharomyces cerevisiae, UniProt P53341); experiment: α-Glucosidase inhibitory activity; type: biochemical
Sequence of α-glucosidase (P53341 whole entry): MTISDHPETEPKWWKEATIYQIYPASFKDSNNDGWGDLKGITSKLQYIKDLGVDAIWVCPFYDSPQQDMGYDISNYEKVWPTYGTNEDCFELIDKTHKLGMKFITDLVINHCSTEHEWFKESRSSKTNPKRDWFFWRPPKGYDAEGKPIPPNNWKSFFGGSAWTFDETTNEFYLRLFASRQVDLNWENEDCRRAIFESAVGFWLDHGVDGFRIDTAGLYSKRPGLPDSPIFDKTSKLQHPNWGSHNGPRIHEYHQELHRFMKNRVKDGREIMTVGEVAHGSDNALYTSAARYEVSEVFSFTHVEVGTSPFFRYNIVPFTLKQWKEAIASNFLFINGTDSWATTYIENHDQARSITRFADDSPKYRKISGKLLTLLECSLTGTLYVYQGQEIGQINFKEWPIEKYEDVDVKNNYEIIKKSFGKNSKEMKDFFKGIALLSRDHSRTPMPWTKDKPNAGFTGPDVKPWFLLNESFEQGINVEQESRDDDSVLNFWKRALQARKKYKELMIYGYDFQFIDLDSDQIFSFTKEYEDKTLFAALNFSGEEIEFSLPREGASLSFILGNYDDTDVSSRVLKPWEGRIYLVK

[1] = system: human blood paraoxonase-1 (PON1); settings: cited from earlier work

IC50 (human sPLA2 hG-IIA) | IC50 (α-glucosidase) | IC50 sPLA2(IIA) (human sPLA2 hG-IIA) | SMILES | type of inhibition of PON1 [1]
1520 ± 212 nM | 2.79 ± 0.5 µM | – | Cc1ccc(S(=O)(=O)NNc2nc3ccccc3nc2Cl)cc1 [Compound 5b, N’-(3-chloroquinoxalin-2-yl)-4-methylbenzenesulfonohydrazide] | –
2590 ± 292 nM | 29.4 ± 0.532 µM | – | O=S(=O)(NNc1nc2ccccc2nc1Cl)c1ccc(C(F)(F)F)cc1 [Compound 5c, N’-(3-chloroquinoxalin-2-yl)-4-(trifluoromethyl) benzenesulfonohydrazide] | –
2120 ± 132 nM | 13.3 ± 0.263 µM | – | O=S(=O)(NNc1nc2ccccc2nc1Cl)c1ccc(Br)cc1 [Compound 5d, 4-Bromo-N’-(3-chloroquinoxalin-2-yl)benzenesulfonohydrazide] | –
47.5 ± 0.8 nM | 3.15 ± 0.032 µM | – | O=S(=O)(NNc1nc2ccccc2nc1NNS(=O)(=O)c1ccccc1)c1ccccc1 [Compound 6a, N’,N’’’-(quinoxaline-2,3-diyl)dibenzenesulfonohydrazide] | –
76.5 ± 1.7 nM | 0.96 ± 0.112 µM | – | Cc1ccc(S(=O)(=O)NNc2nc3ccccc3nc2NNS(=O)(=O)c2ccc(C)cc2)cc1 [Compound 6b, N’,N’’’-(quinoxaline-2,3-diyl)bis(4-methylbenzenesulfonohydrazide)] | –
2240 ± 1050 nM | 0.0953 ± 0.0054 µM | – | O=S(=O)(NNc1nc2ccccc2nc1NNS(=O)(=O)c1ccc(C(F)(F)F)cc1)c1ccc(C(F)(F)F)cc1 [Compound 6c, N’,N’’’-(quinoxaline-2,3-diyl)bis(4-trifluoromethylbenzenesulfonohydrazide)] | –
4930 ± 241 nM | 8.29 ± 0.367 µM | high micromolar | O=S(=O)(NNc1nc2ccccc2nc1NNS(=O)(=O)c1ccc(Br)cc1)c1ccc(Br)cc1 [Compound 6d, N’,N’’’-(quinoxaline-2,3-diyl)bis(4-bromobenzenesulfonohydrazide)] | –
– | – | – | COc1ccc(OC)c(C(O)CNC(=O)CN)c1 (stereo not shown) [Midodrine] | competitive inhibition
– | – | – | CC(C)NCC(O)COc1ccc(CC(N)=O)cc1 (stereo not shown) [atenolol] | non-competitive inhibition
– | – | – | CC(C)(C)NCC(O)COc1cccc2c1CC(O)C(O)C2 (stereo not shown) [nadolol] | competitive inhibition
– | – | – | CC(C)NCC(O)COc1cccc2[nH]ccc12 (stereo not shown) [pindolol] | non-competitive inhibition
